From patent US6410792B1, “Amide derivatives and methods for using the same as selective neuropeptide Y receptor antagonists” (Bayer Corporation, priority 1997, dated 2002)
pIC50: −log10 of the molar value. Structures can show the parent of a compound that is named as a salt. Where two headings read alike, the source gives them in different places.

Columns and labels:
[1] = target: T1, Y2 receptor (Homo sapiens, UniProt P49146); assay: Y2 receptor binding assay ([125I]PYY, membrane protein); details: [125I]PYY, membrane protein; read-out: hNPY2 IC50
T1 sequence (P49146 1-381): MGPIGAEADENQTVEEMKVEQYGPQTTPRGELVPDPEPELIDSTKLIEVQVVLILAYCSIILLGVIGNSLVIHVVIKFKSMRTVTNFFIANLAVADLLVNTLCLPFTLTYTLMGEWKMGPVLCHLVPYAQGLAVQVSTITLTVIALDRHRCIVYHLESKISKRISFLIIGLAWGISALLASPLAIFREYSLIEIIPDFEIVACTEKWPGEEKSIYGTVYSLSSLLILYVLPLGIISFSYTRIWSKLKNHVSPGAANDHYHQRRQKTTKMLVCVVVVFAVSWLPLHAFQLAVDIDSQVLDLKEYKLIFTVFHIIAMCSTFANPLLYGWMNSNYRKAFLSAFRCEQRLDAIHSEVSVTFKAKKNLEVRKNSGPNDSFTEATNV
In short: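 Filtration binding with membrane protein and drug dilution, 2 h at room temperature with mixing, radioactivity counted by gamma or scintillation. Y2: 25 pM [125I]PYY in Krebs-Ringer bicarbonate pH 7.4 with 0.01% BSA, nonspecific by 1 μM NPY. Y4/PP1: 50 pM [125I]hPP in HEPES-buffered saline pH 7.4 with protease inhibitors and 0.3% BSA, nonspecific by 1 μM hPP.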

[2] = target: human Y4/PP1 receptor (Homo sapiens, UniProt P50391); assay: Human Y4/PP1 receptor binding assay ([125I]human PP, membrane protein); details: [125I]human PP, membrane protein; read-out: hNPY4 IC50
Sequence of human Y4/PP1 receptor (P50391 whole entry): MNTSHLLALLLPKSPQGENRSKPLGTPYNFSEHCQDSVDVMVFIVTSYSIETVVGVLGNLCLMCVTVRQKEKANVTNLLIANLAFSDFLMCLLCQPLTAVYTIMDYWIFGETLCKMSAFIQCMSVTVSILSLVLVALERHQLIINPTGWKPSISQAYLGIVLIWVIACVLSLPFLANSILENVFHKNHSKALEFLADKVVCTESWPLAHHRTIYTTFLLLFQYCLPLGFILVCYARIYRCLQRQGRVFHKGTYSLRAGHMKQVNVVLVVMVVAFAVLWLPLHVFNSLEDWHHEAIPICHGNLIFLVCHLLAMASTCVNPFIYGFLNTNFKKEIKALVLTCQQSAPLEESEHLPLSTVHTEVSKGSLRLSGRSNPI
Procedure: B. Human Y2 and Y4/PP1 Receptor Binding Assays
Binding assays were performed on GF/C Millipore 96-well plates pretreated with 0.02% polyethylenimine. The binding buffer for rat Y2 binding is Krebs-Ringer bicarbonate (pH 7.4) containing 0.01% BSA and 0.005% bacitracin. Samples consist of membrane protein, 25 pM [1251]PYY and drug dilution. Nonspecific binding is defined by 1 μM NPY. The binding buffer for human Y4/PP1 binding consists of 137 mM NaCl, 5.4 mM KCl, 0.44 mM KH2PO4, 1.26 mM CaCl2, 0.81 mM MgSO4, 20 mM HEPES, 1 mM dithiothreitol, 0.1% bacitracin, 100 mg/l streptomycin sulfate, 1 mg/l aprotinin, 10 mg/ml soybean trypsin inhibitor and 0.3% BSA, pH 7.4. Samples consist of membrane protein, 50 pM human [1251]human PP (hPP: NEN DuPont, Boston, Mass.) and drug dilution. 1 μM hPP is used to define nonspecific binding.
After a 2 hour incubation at room temperature with constant mixing, the samples are aspirated on a vacuum manifold, and rinsed with ice-cold binding buffer. The amount of radioactivity in each well is quantitated with either gamma counting or liquid scintillation.

[3] = target: T2, Human NPY5 receptor (Homo sapiens, UniProt Q15761); assay: Human NPY5 receptor binding assay ([125I]PYY, membrane protein); details: read-out: hNPY5 IC50
T2 sequence (Q15761 1-445): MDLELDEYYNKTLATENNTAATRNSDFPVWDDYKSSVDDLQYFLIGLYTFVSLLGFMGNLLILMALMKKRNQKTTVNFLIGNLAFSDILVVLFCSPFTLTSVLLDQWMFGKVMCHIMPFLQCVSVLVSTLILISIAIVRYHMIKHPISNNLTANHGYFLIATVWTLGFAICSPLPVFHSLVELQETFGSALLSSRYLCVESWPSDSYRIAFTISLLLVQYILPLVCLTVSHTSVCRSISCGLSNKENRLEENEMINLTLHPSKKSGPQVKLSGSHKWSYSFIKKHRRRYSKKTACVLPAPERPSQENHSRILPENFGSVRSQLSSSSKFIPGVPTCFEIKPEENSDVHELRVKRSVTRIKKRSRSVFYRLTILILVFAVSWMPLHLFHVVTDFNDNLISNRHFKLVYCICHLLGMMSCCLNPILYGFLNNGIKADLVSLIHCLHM
In short: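 Competition against porcine [125I]PYY (75-100 pM) on receptor membranes, 2 h, room temperature, Tris-based pH 7.4 buffer with BSA and bacitracin. Bound radioactivity after filtration and ice-cold rinse counted by gamma or liquid scintillation; 1 μM PYY defines nonspecific binding.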

[4] = target: T3, Rat NPY5 receptor (Rattus norvegicus, UniProt Q63634); assay: Rat NPY5 receptor binding assay ([125I]PYY, membrane protein)
T3 sequence (Q63634 1-445): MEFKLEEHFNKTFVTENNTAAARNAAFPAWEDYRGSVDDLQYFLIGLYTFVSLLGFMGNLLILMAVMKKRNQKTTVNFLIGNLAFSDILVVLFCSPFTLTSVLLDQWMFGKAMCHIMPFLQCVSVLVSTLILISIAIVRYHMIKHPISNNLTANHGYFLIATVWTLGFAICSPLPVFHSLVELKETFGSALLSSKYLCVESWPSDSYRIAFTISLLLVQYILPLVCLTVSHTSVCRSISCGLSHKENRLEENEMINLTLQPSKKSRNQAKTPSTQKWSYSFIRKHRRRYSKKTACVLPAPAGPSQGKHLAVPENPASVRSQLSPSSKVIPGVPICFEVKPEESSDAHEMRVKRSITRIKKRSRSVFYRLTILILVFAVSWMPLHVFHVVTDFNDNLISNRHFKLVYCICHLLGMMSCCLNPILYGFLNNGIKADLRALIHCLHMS
Procedure: C. Human and Rat NPY5 Receptor Binding Assays
Binding assays are performed on GF/C Millipore 96well plates pretreated with 0.02% polyethylenimine. The binding buffer is 25 mM Tris, 120 mM NaCl, 5 mM KCl, 1.2 mM KH2PO4, 2.5 mM CaCl2, 1.2 mM MgSO4, 0.1% BSA and 0.5 mg/ml bacitracin, pH 7.4. Samples consist of membrane protein, 75-100 pM [125I]PYY (porcine, NEN-DuPont) and drug dilution. Nonspecific binding is defined by 1 μM PYY. After a 2 hour incubation at room temperature with constant mixing, the samples are aspirated on a vacuum manifold, and rinsed with ice-cold binding buffer. The amount of radioactivity in each well is quantitated with either gamma counting or liquid scintillation.

[5] = [125I]PYY binding, read-out: rNPY5 IC50

## O=C(CNCCCn1c(=O)[nH]c2ccccc21)Nc1ccc(C2CCCCC2)cc1 [Compound 276, N-(4-Cyclohexyl-phenyl)-2-[3-(2-oxo-2,3-dihydro-benzoimidazol-1-yl)-propylamino]-acetamide]
[1]
  pIC50: < 5.30
[2]
  pIC50: < 5.30
[3]; [125I]PYY
  pIC50: 5.96

## O=C(CN1CCC(n2c(=O)[nH]c3ccccc32)CC1)NC1CC2CCC1C2 (centres unmarked) [Compound 326, N-Bicyclo[2.2.1]hept-2-yl-2-[4-(2-oxo-2,3-dihydro-benzoimidazol-1-yl)-piperidin-1-yl] acetamide]
[1]
  pIC50: < 5.30
[2]
  pIC50: < 5.30

## Nc1ccccc1NC(=O)CN1CCC(n2c(=O)[nH]c3ccccc32)CC1 [Compound 331, N-(2-Amino-phenyl)-2-[4-(2-oxo-2,3-dihydro-benzoimidazol-1-yl)-piperidin-1-yl]-acetamide, reference compound]
[1]
  pIC50: < 5.30
[2]
  pIC50: < 5.30

## COC(=O)c1cc(Cl)ccc1NC(=O)CN1CCC(n2c(=O)[nH]c3ccccc32)CC1 [Compound 333, 5-Chloro-2-{2-[4-(2-oxo-2,3-dihydro-benzoimidazol-1-yl)-piperidin 1-yl]-acetylamino}-benzoic acid methyl ester, reference compound]
[1]
  pIC50: < 5.30
[2]
  pIC50: < 5.30

## NC(=O)c1cc(N)ccc1NC(=O)CN1CCC(n2c(=O)[nH]c3ccccc32)CC1 [Compound 334, 5-Amino-2-{2-[4-(2-oxo-2,3-dihydro-benzoimidazol-1-yl)piperidin 1-yl]-acetylamino}-benzamide, reference compound]
[1]
  pIC50: < 5.30
[2]
  pIC50: < 5.30

## COc1ccc(-c2ccccc2)cc1NC(=O)CN1CCC(n2c(=O)[nH]c3ccccc32)CC1 [Compound 328, N-(4-Methoxy-biphenyl-3-yl)-2-[4-(2-oxo-2,3-dihydro-benzoimidazol-1-yl)-piperidin-1-yl]-acetamide; hydrochloride]
[1]
  pIC50: < 5.30
[2]
  pIC50: < 5.30

## O=C(CNCc1ccco1)Nc1ccc(C2CCCCC2)cc1 [Compound 160, N-(4-Cyclohexyl-phenyl)-2-[(furan-2-ylmethyl)-amino]-acetamide]
[3]; [125I]PYY binding
  pIC50: 6.18
[4]; [5]
  pIC50: 6.35

## CCCC(CO)NCC(=O)Nc1ccc(C2CCCCC2)cc1 (centres unmarked) [Compound 216, N-(4-Cyclohexyl-phenyl)-2-(1-hydroxymethyl-butylamino)-acetamide]
[3]; [125I]PYY binding
  pIC50: 6.35
[4]; [5]
  pIC50: < 5.00

## O=C(CNC1CCC1)Nc1ccc(C(=O)c2ccccc2)cc1 [Compound 242, N-(4-Benzoyl-phenyl)-2-cyclobutylamino-acetamide]
[3]; [125I]PYY binding
  pIC50: 5.36
[4]; [5]
  pIC50: 5.30

## CCN(CC)CCCC(C)NCC(=O)Nc1ccc(C(=O)c2ccccc2)cc1 (centres unmarked) [Compound 246, N-(4-Benzoyl-phenyl)-2-(4-diethylamino-1-methyl-butylamino)-acetamide]
[3]; [125I]PYY
  pIC50: 5.80
[4]; [125I]PYY, read-out: rNPY5 IC50
  pIC50: 5.77

## O=C(CNCC1CC1)Nc1ccc(C(=O)c2ccccc2)cc1 [Compound 184, N-(4-Benzoyl-phenyl)-2-(cyclopropylmethyl-amino)-acetamide]
[3]; [125I]PYY binding
  pIC50: 6.13
[4]; [5]
  pIC50: 6.16

## C=CCNCC(=O)Nc1ccc(C2CCCCC2)cc1 [Compound 235, 2-Allylamino-N-(4-cyclohexyl-phenyl)-acetamide]
[3]; [125I]PYY binding
  pIC50: 5.80
[4]; [5]
  pIC50: 5.42

## O=C(O)CC(NCC(=O)Nc1ccc(C(=O)c2ccccc2)cc1)C(F)(F)F (centres unmarked) [Compound 190, 3-{[(4-Benzoyl-phenylcarbamoyl)-methyl]-amino}-4,4,4-trifluoro-butyric acid]
[3]; [125I]PYY binding
  pIC50: 6.47
[4]; [5]
  pIC50: 6.47

## C=CCC(NCC(=O)Nc1ccc(C2CCCCC2)cc1)C(=O)O (centres unmarked) [Compound 220, 2-{[(4-Cyclohexyl-phenylcarbamoyl)-methyl]-amino}-pent-4-enoic acid]
[3]; [125I]PYY binding
  pIC50: 6.27
[4]; [5]
  pIC50: 6.14

## CCC(=O)C1(c2ccccc2)CCN(CC(=O)Nc2ccc(-c3ccccc3)cc2)CC1 [Compound 317, N-Biphenyl-4-yl-2-(4-phenyl-4-propionyl-piperidin-1-yl)-acetamide: hydrochloride]
[3]; [125I]PYY
  pIC50: 8.00
[4]; rNPY5 IC50, [125I]PYY
  pIC50: 7.96

## CNC1CCN(CC(=O)Nc2ccc(C3CCCCC3)cc2)C1 (centres unmarked) [Compound 193, N-(4-Cyclohexyl-phenyl)-2-(3-methylamino-pyrrolidin-1-yl)-acetamide]
[3]; [125I]PYY binding
  pIC50: 6.57
[4]; [5]
  pIC50: 6.60

## COC(CNCC(=O)Nc1ccc(C2CCCCC2)cc1)OC [Compound 241, N-(4-Cyclohexyl-phenyl)-2-(2,2-dimethoxy-ethylamino)-acetamide]
[3]; [125I]PYY binding
  pIC50: 6.55
[4]; [5]
  pIC50: 6.64

## O=C(CNCc1ccc(C(=O)O)cc1)Nc1ccc(C2CCCCC2)cc1 [Compound 212]
[3]; [125I]PYY binding
  pIC50: < 5.00
[4]; [5]
  pIC50: < 5.00

## O=C(CNC(CO)CO)Nc1ccc(C2CCCCC2)cc1 [Compound 173, N-(4-Cyclohexyl-phenyl)-2-(2-hydroxy-1-hydroxymethyl-ethylamino)-acetamide]
[3]; [125I]PYY binding
  pIC50: 5.70
[4]; [5]
  pIC50: 6.04

## O=C1C=C(NCC(=O)Nc2ccc(C3CCCCC3)cc2)CCC1 [Compound 179, N-(4-Cyclohexyl-phenyl)-2-(3-oxo-cyclohex-1-enylamino)-acetamide]
[3]; [125I]PYY binding
  pIC50: < 5.00
[4]; [5]
  pIC50: < 5.00
